pIC50: −log10 of the molar value.
Target: T1, ASGPR (Mus musculus, UniProt P24721+P34927)
T1 construct: host or cells: murine hepatocytes (primary, plated)
T1 sequence (P34927 1-284): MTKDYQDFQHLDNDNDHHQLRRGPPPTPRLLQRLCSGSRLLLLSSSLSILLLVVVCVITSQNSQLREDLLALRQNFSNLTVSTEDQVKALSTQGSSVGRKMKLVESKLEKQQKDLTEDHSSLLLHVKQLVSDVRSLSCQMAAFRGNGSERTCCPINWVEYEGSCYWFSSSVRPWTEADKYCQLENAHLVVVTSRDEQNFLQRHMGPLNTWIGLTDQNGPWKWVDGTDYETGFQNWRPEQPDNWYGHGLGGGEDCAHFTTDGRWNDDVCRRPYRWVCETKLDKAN
T1 sequence (P24721 1-301): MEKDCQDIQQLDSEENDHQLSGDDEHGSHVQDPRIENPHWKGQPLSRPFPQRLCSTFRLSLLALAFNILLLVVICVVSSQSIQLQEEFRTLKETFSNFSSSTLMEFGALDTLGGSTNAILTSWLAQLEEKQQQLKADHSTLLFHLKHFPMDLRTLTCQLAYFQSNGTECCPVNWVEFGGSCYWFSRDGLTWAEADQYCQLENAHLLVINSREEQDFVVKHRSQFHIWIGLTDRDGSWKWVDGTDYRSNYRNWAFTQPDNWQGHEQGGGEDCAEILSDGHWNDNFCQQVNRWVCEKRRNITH
Test: Binding strength of saccharide chain peptide and murine hepatocyte (competition with Eu-ASOR, time-resolved fluorescence)
Settings: for pIC50: murine hepatocyte, Eu-ASOR 10 nM, 5 mM calcium chloride, 1 hr
Protocol: With Eu-asialo-orosomucoid (Eu-ASOR) as reference material, the binding strength of saccharide chain peptide and murine hepatocyte is determined by comparing whether the binding degree of saccharide chain peptides, such as DCM-Lys(ah-GalNAc)3, DCM-Lys(Gah-GalNAc)3, DCM-Lys(ah-Lac)3, AHA-Asp[DCM-Lys(ah-Lac)3]2 with murine hepatocyte is higher than that of Eu-ASOR or not, in which the binding degree is expressed by IC50 (concentration of 50% inhibition), and the lower the IC50 is, the higher the binding degree is. The murine hepatocyte (from Lonza Biotechnology Company, Maryland) is plated in a 24-well plate in advance, and the reaction occurs in each well, into which (i) Eu-ASOR 10 nM (ii) hepatocyte basic medium with 5 mM calcium chloride, and (iii) five different concentrations of saccharide chain peptide of 1 uM-0.8 nM are added. After culturing under shaking for 1 hr, the substance that has not been bound to hepatocyte is removed by washing with the hepatocyte basic medium containing calcium chloride. Time-resolved fluorescence spectroscopy is preformed, that is, an enhancement solution (15
uM β-naphthoyl trifluoroacetone, 50 uM tri-n-octyl-phosphine oxide, 0.1 M potassium hydrogen phthalate, 0.1% Triton X-100 in 0.1 M acetic acid, pH 3.2) is added. The enhancement solution reacts with Eu^3+ to form a Eu chelate, which can emit a light of 615 nm when being excited at 340 nm. With the logarithm of the concentration of saccharide chain peptide as X axis, the emitted fluorescence value as Y axis, the fluorescence value without adding glycopeptide being set as 100%, the IC50 of each saccharide chain peptide can be calculated accordingly.

Row | pIC50 | SMILES | binding with ASGPR relative to YEE or YDD (compared with YEE or YDD, from Table 1) [times]
1 | 8.00 | CC(=O)N[C@H]1[C@H](OCCCCCCNC(=O)CC[C@H](NC(=O)[C@H](CCC(=O)NCCCCCCO[C@@H]2O[C@H](CO)[C@H](O)[C@H](O)[C@H]2NC(C)=O)NC(=O)[C@@H](N)Cc2ccc(O)cc2)C(=O)NCCCCCCO[C@@H]2O[C@H](CO)[C@H](O)[C@H](O)[C@H]2NC(C)=O)O[C@H](CO)[C@H](O)[C@@H]1O [YEE(ahGalNAc)3, reference compound] | 
2 | 8.00 | NCCCCCC(=O)N[C@@H](CC(=O)NCCCC[C@@H](C(=O)NCCCCCCOC1O[C@H](CO)[C@@H](O[C@@H]2O[C@H](CO)[C@H](O)[C@H](O)[C@H]2O)[C@H](O)[C@H]1O)N(CC(=O)NCCCCCCOC1O[C@H](CO)[C@@H](O[C@@H]2O[C@H](CO)[C@H](O)[C@H](O)[C@H]2O)[C@H](O)[C@H]1O)CC(=O)NCCCCCCOC1O[C@H](CO)[C@@H](O[C@@H]2O[C@H](CO)[C@H](O)[C@H](O)[C@H]2O)[C@H](O)[C@H]1O)C(=O)NCCCC[C@@H](C(=O)NCCCCCCOC1O[C@H](CO)[C@@H](O[C@@H]2O[C@H](CO)[C@H](O)[C@H](O)[C@H]2O)[C@H](O)[C@H]1O)N(CC(=O)NCCCCCCOC1O[C@H](CO)[C@@H](O[C@@H]2O[C@H](CO)[C@H](O)[C@H](O)[C@H]2O)[C@H](O)[C@H]1O)CC(=O)NCCCCCCOC1O[C@H](CO)[C@@H](O[C@@H]2O[C@H](CO)[C@H](O)[C@H](O)[C@H]2O)[C@H](O)[C@H]1O (stereo partly drawn) [AHA-Asp[DCM-Lys(ahLac)3]2, AHA-Asp[DCM-Lys(ah-Lac)3]2] | 
3 |  | CC(=O)N[C@H]1[C@H](OCCCCCCNC(=O)CNC(=O)CN(CC(=O)NCC(=O)NCCCCCCO[C@@H]2O[C@H](CO)[C@H](O)[C@H](O)[C@H]2NC(C)=O)[C@@H](CCCCN)C(=O)NCC(=O)NCCCCCCO[C@@H]2O[C@H](CO)[C@H](O)[C@H](O)[C@H]2NC(C)=O)O[C@H](CO)[C@H](O)[C@@H]1O [DCM-Lys(GahGalNAc)3] | 10

Source: patent US20110097264A1, “RADIOLABELING METHOD USING MULTIVALENT GLYCOLIGANDS AS HEPATIC RECEPTOR IMAGING AGENT” (Institute of Nuclear Energy Research Atomic Energy Council, …, priority 2009, published 2011)
